Measured values taken from US11014898B1, “Benzothiazepine compounds and their use as bile acid modulators” (Albireo AB, priority 2020, dated 2021).

Assay: Bidirectional permeability assay (Caco-2 cells)
Type: in vitro ADME
Details: human, Caco-2, pH 7.4, 10 μM in FaSSIF buffer, 120 minutes at 37° C.; for Papp A→B at 120 min, 10 μM: absorptive direction (A2B); for Papp B→A at 120 min, 10 μM: secretory direction (B2A)
Experimental: Caco-2 cells (Evotec) were seeded at a density of 70,000 cells/well in Millicell® 24-well cell culture insert plates and maintained in an incubator (37° C., 5% CO2, 95% RH) for 21 days with media change on alternate days.
Stock solutions (10 mM) of the test compounds, atenolol (low permeability marker), propranolol (high permeability marker) and digoxin (substrate for P-gp transport pathway) were prepared in dimethylsulfoxide (DMSO). An intermediate stock solution (1 mM) was prepared by diluting 10 μL of 10 mM master stock solution with 90 μL of neat DMSO. A working stock solution (10 μM) was prepared by diluting 50 μL of 1 mM with 4950 μL of FaSSIF buffer. Post addition of compounds to the FaSSIF, samples were subjected to sonication for 2 hours, and centrifuged at 4000 RPM for 30 minutes at 37° C. The 4 mL of resultant supernatant was directly used in the assay. The final DMSO concentration in the transport experiments was 1%.
On the day of assay, Caco-2 monolayers were washed twice with transport buffer (HBSS, pH 7.4) and pre-incubated for 30 min (37° C., 5% CO2, 95% RH) in an incubator. The electrical resistance of the monolayers was measured with a Millicell®-ERS system. Monolayers with trans-epithelial electrical resistance (TEER) values greater than 350 ohm·cm^2 were selected for the assay.
The assay was conducted in absorptive direction (A2B) and secretory (B2A) directions. Transport experiments were initiated by addition of transport assay buffer (FaSSIF buffer prepared in HBSS) consisting of compounds to the donor compartment (apical chamber A-B; basolateral chamber B-A) in duplicate (n=2) wells. Drug free HBSS buffer (pH 7.4) containing 1% bovine serum albumin (BSA) was introduced to the receiver (A-B-basolateral; B-A-Apical) compartments. The volumes of apical and basolateral compartments were 0.4 and 0.8 mL, respectively. After adding dosing solution, plates were incubated in an incubator for 120 minutes at 37° C. After 120 minutes, donor and receiver samples were collected and matrix matched (1:1, 30 μL study sample+30 μL blank buffer) with the opposite buffer. Dosing samples matrix matched (1:1, 30 μL study sample+30 μL blank buffer) with the opposite buffer. Samples were processed by adding acetonitrile containing internal standard (60 μL study sample+200 μL acetonitrile containing internal standard-Tolbutamide, 500 ng/mL). Samples were vortexed and centrifuged at 4000 rpm for 10 minutes. The obtained supernatant (100 μL) was diluted with 100 μL of water and transferred to fresh 96 well plates. The concentration of compounds in the samples was analyzed by liquid chromatography tandem mass spectrometry (LC-MS/MS) method using discovery grade bio-analytical method, as applicable.
The mean apparent permeability (Papp×10^−6 cm/sec) of the test compounds, atenolol, propranolol and digoxin were calculated as follows:
where dq/dt=rate of transport (rate of transport of compound in the receiver compartment), C0=initial concentration in the donor compartment, A=surface area of the effective filter membrane.

CCCCC1(CCCC)CN(c2ccc(Br)cc2)c2cc(SC)c(OCC(=O)O)cc2S(=O)(=O)C1 [Example 3, 2-((5-(4-bromophenyl)-3,3-dibutyl-7-(methylthio)-1,1-dioxido-2,3,4,5-tetrahydro-1,5-benzothiazepin-8-yl)oxy)acetic Acid]
Papp A→B at 120 min, 10 μM: 4.1 ×10⁻⁶ cm/s | Papp B→A at 120 min, 10 μM: 1.9 ×10⁻⁶ cm/s

CCCCC1(CCCC)CN(c2ccc(O)cc2)c2cc(SC)c(OCC(=O)O)cc2S(=O)(=O)C1 [Example 4, 2-((3,3-dibutyl-5-(4-hydroxyphenyl)-7-(methylthio)-1,1-dioxido-2,3,4,5-tetrahydro-1,5-benzothiazepin-8-yl)oxy)acetic Acid]
Papp A→B at 120 min, 10 μM: 3.3 ×10⁻⁶ cm/s | Papp B→A at 120 min, 10 μM: 8.9 ×10⁻⁶ cm/s
